Source: article PMC12073438, “Stereoselectivity of In Vivo Processes and Bioactivity of Farrerol Enantiomers” (Molecules, 2025)

Test: Rat single-pass intestinal perfusion
Format: in vivo, Sprague–Dawley rats
Description: The absorption rate constant (Ka) and permeability coefficient (Peff) were calculated using the following equation: […] The single-pass intestinal perfusion studies in rats were conducted following previously established methodologies. […] Before the surgical procedure, animals were fasted overnight with water ad libitum. Rats were anesthetized via intraperitoneal administration of 20% urethane at a dosage of 6 mL/kg and subsequently positioned on a heating pad. Their normal body temperature (37.0 ± 0.5 °C) was sustained using an infrared lamp. A midline incision was made to open the abdomen, allowing for the exposure of 35–45 cm of the small intestine, along with a 10 cm segment […]. This segment was cannulated with Teflon tubing (0.42 cm in diameter) at both the proximal and distal ends, which were then secured with silk sutures. This segment was gently flushed with warmed normal saline to remove intestinal contents. Then, farrerol racemate maintained at 37 °C was perfused through the lumen of the small intestine at a flow rate of 0.2 mL/min. After a 30 min equilibration period to reach steady-state outlet concentrations, the perfusate samples were collected every 15 min for 120 min in micro-centrifuge tubes. The length of the small intestinal segment was measured following the last collection. All collected samples were stored at −20 °C. 500 μL of collected intestinal perfusion samples were placed in an EP tube and then dried with nitrogen at 37 °C. The residue was redissolved and precipitated with 200 μL of methanol by vortex-mixing for 5 min. Following centrifugation at 13,000 rpm for 10 min, the supernatant samples were analyzed using the previously validated RP-HPLC-DAD method. The chiral HPLC technique employed for the analysis of farreol enantiomers in intestinal perfusate aligned with the chromatographic procedure outlined in Section 3.4.3. This method underwent validation for parameters including linearity, range, extraction recovery, specificity, precision, and accuracy. […] The extraction recoveries of farrerol in intestinal perfusate at three different concentration levels ranged from 90.57% to 95.57%.

[1] = Colon, farrerol racemate 66.00 μg·mL^−1
[2] = Colon, farrerol racemate 132.00 μg·mL^−1
[3] = Colon, farrerol racemate 132.00 μg·mL^−1 + verapamil
[4] = Colon, farrerol racemate 180.00 μg·mL^−1
[5] = Duodenum, farrerol racemate 66.00 μg·mL^−1
[6] = Duodenum, farrerol racemate 132.00 μg·mL^−1
[7] = Duodenum, farrerol racemate 132.00 μg·mL^−1 + verapamil
[8] = Duodenum, farrerol racemate 180.00 μg·mL^−1
[9] = Ileum, farrerol racemate 66.00 μg·mL^−1
[10] = Ileum, farrerol racemate 132.00 μg·mL^−1
[11] = Ileum, farrerol racemate 132.00 μg·mL^−1 + verapamil
[12] = Ileum, farrerol racemate 180.00 μg·mL^−1
[13] = Jejunum, farrerol racemate 66.00 μg·mL^−1
[14] = Jejunum, farrerol racemate 132.00 μg·mL^−1
[15] = Jejunum, farrerol racemate 132.00 μg·mL^−1 + verapamil
[16] = Jejunum, farrerol racemate 180.00 μg·mL^−1

Compound | Peff [1] | Peff [2] | Peff [3] | Peff [4] | Peff [5] | Peff [6] | Peff [7] | Peff [8] | Peff [9] | Peff [10] | Peff [11] | Peff [12] | Peff [13] | Peff [14] | Peff [15] | Peff [16]
Cc1c(O)c(C)c2c(c1O)C(=O)CC(c1ccc(O)cc1)O2 (single isomer, unassigned; (+)) [(+)-farrerol, 2,3-dihydro-5,7-dihydroxy-2-(4-hydroxyphenyl)-6,8-dimethyl-4-benzopyrone] | 1.09 ± 0.37 ×10^−1 cm·min^−1 | 0.93 ± 0.09 ×10^−1 cm·min^−1 | 1.41 ± 0.23 ×10^−1 cm·min^−1 | 1.04 ± 0.12 ×10^−1 cm·min^−1 | 1.32 ± 0.03 ×10^−1 cm·min^−1 | 1.16 ± 0.11 ×10^−1 cm·min^−1 | 1.42 ± 0.17 ×10^−1 cm·min^−1 | 1.30 ± 0.14 ×10^−1 cm·min^−1 | 1.12 ± 0.22 ×10^−1 cm·min^−1 | 0.87 ± 0.08 ×10^−1 cm·min^−1 | 0.77 ± 0.11 ×10^−1 cm·min^−1 | 0.79 ± 0.04 ×10^−1 cm·min^−1 | 1.16 ± 0.23 ×10^−1 cm·min^−1 | 0.73 ± 0.03 ×10^−1 cm·min^−1 | 1.12 ± 0.10 ×10^−1 cm·min^−1 | 1.03 ± 0.06 ×10^−1 cm·min^−1
Cc1c(O)c(C)c2c(c1O)C(=O)CC(c1ccc(O)cc1)O2 (single isomer, unassigned; (-)) [(−)-farrerol, 2,3-dihydro-5,7-dihydroxy-2-(4-hydroxyphenyl)-6,8-dimethyl-4-benzopyrone] | 1.12 ± 0.41 ×10^−1 cm·min^−1 | 0.95 ± 0.10 ×10^−1 cm·min^−1 | 1.42 ± 0.23 ×10^−1 cm·min^−1 | 1.12 ± 0.17 ×10^−1 cm·min^−1 | 1.33 ± 0.03 ×10^−1 cm·min^−1 | 1.17 ± 0.10 ×10^−1 cm·min^−1 | 1.43 ± 0.17 ×10^−1 cm·min^−1 | 1.33 ± 0.11 ×10^−1 cm·min^−1 | 1.14 ± 0.22 ×10^−1 cm·min^−1 | 0.89 ± 0.10 ×10^−1 cm·min^−1 | 0.77 ± 0.11 ×10^−1 cm·min^−1 | 0.78 ± 0.07 ×10^−1 cm·min^−1 | 1.17 ± 0.24 ×10^−1 cm·min^−1 | 0.74 ± 0.05 ×10^−1 cm·min^−1 | 1.12 ± 0.10 ×10^−1 cm·min^−1 | 1.07 ± 0.10 ×10^−1 cm·min^−1
